From publication PMC10114980, “Triple targeting of mutant EGFR^L858R/T790M, COX-2, and 15-LOX: design and synthesis of novel quinazolinone tethered phenyl urea derivatives for anti-inflammatory and anticancer evaluation” (Journal of Enzyme Inhibition and Medicinal Chemistry, 2023)
Where “and” joins values, the source holds several entries; their conditions need not be identical. Equal values may be shown once.

Experiments:
[1] = tested on: LPS-induced TNF-α production in RAW 264.7 cells; assay: TNF-α production in LPS-activated RAW 264.7 cells (ELISA); type: cell-based; conditions: LPS-activated RAW 264.7 cells treated with 25 µM of the compound
SK-MEL-28 = assay: NCI single dose screen, SK-MEL-28; type: cell-based; conditions: Homo sapiens; SK-MEL-28, melanoma; single dose 10^−5 M; read-out: growth inhibition percentage
Description: (§1) Screening of the anticancer activity of the newly synthesised compounds (6a, 6c, 6d, 6e, 6j, 6l, 6m, 6n, 6o, and 6p) was performed by the US National Cancer Institute (NCI) using 60 different human tumour cell lines in accordance with standard procedures formerly reported.
(§2) In vitro anticancer screening was carried out for the selected compounds at a single dose (10^−5 M) against 60 different human tumour cell lines of nine different cancer cell types: leukaemia, lung, colon, CNS, melanoma, ovarian, renal, prostate, and breast cancers.

OVCAR-3 = assay: NCI single dose screen, OVCAR-3; type: cell-based; conditions: Homo sapiens; OVCAR-3, ovarian cancer; single dose 10^−5 M; read-out: growth inhibition percentage
Description: as §1, §2

UO-31 = assay: NCI single dose screen, UO-31; type: cell-based; conditions: Homo sapiens; UO-31, renal cancer; single dose 10^−5 M; read-out: growth inhibition percentage
Description: as §1, §2

SNB-75 = assay: NCI single dose screen, SNB-75; type: cell-based; conditions: Homo sapiens; SNB-75, CNS cancer; single dose 10^−5 M; read-out: growth inhibition percentage
Description: as §1, §2

MDA-MB-435 = assay: NCI single dose screen, MDA-MB-435; type: cell-based; conditions: Homo sapiens; MDA-MB-435, melanoma; single dose 10^−5 M; read-out: growth inhibition percentage
Description: as §1, §2

[2] = Cell viability assay against normal cell line (MTS); type: cell-based; conditions: mouse, RAW 264.7 cells, concentrations up to 50 μM, read-out: cell viability percentage of the control values
Description: To evaluate the possible non-selective cytotoxic effect of the investigated compounds (6a, 6c, 6d, 6e, 6j, 6l, 6m, 6n, 6o, and 6p) on normal cells, their effect on RAW 264.7 cells viability was assessed at different concentrations (12.5, 25, 50, and 100 µM). Cell viability was measured using 3-(4,5-dimethylthiazol-2-yl)-5-(3-carboxymethoxyphenyl)-2-(4 sulfophenyl)-2H-tetrazolium (MTS) assay (Promega, Madison, Wisconsin) according to the manufacturer’s instructions.

OVCAR-5 = assay: NCI single dose screen, OVCAR-5; type: cell-based; conditions: Homo sapiens; OVCAR-5, ovarian cancer; single dose 10^−5 M; read-out: growth inhibition percentage
Description: as §1, §2

MOLT-4 = assay: NCI single dose screen, MOLT-4; type: cell-based; conditions: Homo sapiens; MOLT-4, leukaemia; single dose 10^−5 M; read-out: growth inhibition percentage
Description: as §1, §2

U251 = assay: NCI single dose screen, U251; type: cell-based; conditions: Homo sapiens, U-251; U251, CNS cancer; single dose 10^−5 M; read-out: growth inhibition percentage
Description: as §1, §2

SK-OV-3 = assay: NCI single dose screen, SK-OV-3; type: cell-based; conditions: Homo sapiens; SK-OV-3, ovarian cancer; single dose 10^−5 M; read-out: growth inhibition percentage
Description: as §1, §2

[3] = target: T1, double mutant EGFR^L858R/T790M (Homo sapiens, UniProt P00533, L858R/T790M); assay: In vitro EGFR inhibition assay, double mutant; type: biochemical; conditions: for IC50: double mutant EGFR; for Selectivity (SI): ratio of the IC50 values EGFR^WT/EGFR^L858R/T790M
T1 construct: purchased AssayQuant Technologies, Inc. (Marlboro, MA, USA)

SF-295 = assay: NCI single dose screen, SF-295; type: cell-based; conditions: Homo sapiens; SF-295, CNS cancer; single dose 10^−5 M; read-out: growth inhibition percentage
Description: as §1, §2

[4] = tested on: LPS-induced ROS production in RAW 264.7 cells; assay: ROS production in LPS-activated RAW 264.7 macrophage cells (DCFH-DA); type: cell-based; conditions: LPS-activated RAW 264.7 cells, mean ± SEM, three replicates; for IC50: Mus musculus, RAW264.7
Description: (§3) TNF-α and IL-6 production were detected in RAW 264.7 macrophage cell culture supernatants following the induction of inflammation by LPS. Moreover, the probes of oxidative species 2,7-dichlorofluorescein diacetate (DCFH-DA) (Molecular Probes) and NO, 4-amino-5-methylamino-2,7-difluorofluorescein diacetate (DAF-FM diacetate) (Molecular Probes) were used to investigate the antioxidant and NO production inhibitory potential of the test compounds. Briefly, RAW 264.7 cells were cultured in black 96 well plates (200 000 cells/mL, 100 µl/well) for 24 h followed by the incubation with the individual test compounds or the reference drugs at different concentrations (12.5, 25, 50, and 100 µM) for 2 h at 37 °C. LPS was then added at a final concentration of 1 µg/mL for an additional 18 h. The cell culture supernatant was collected from cells treated with the different compounds at 25 µM to measure TNF-α and IL-6 levels (1:10 dilution) using DuoSet ELISA kits (R&D Systems, Minneapolis, MN) following the manufacturer’s instructions. Then, the plates were washed to perform ROS and NO detection assays as detailed in our previous studies[16]^,[27].

RXF 393 = assay: NCI single dose screen, RXF 393; type: cell-based; conditions: Homo sapiens; RXF 393, renal cancer; single dose 10^−5 M; read-out: growth inhibition percentage
Description: as §1, §2

NCI-H23 = assay: NCI single dose screen, NCI-H23; type: cell-based; conditions: Homo sapiens; NCI-H23, non-small cell lung cancer; single dose 10^−5 M; read-out: growth inhibition percentage
Description: as §1, §2

IGROV1 = assay: NCI single dose screen, IGROV1; type: cell-based; conditions: Homo sapiens, IGROV-1; IGROV1, ovarian cancer; single dose 10^−5 M; read-out: growth inhibition percentage
Description: as §1, §2

EKVX = assay: NCI single dose screen, EKVX; type: cell-based; conditions: Homo sapiens, non-small cell lung cancer, single dose 10^−5 M, read-out: growth inhibition percentage
Description: as §1, §2

SF-268 = assay: NCI single dose screen, SF-268; type: cell-based; conditions: Homo sapiens; SF-268, CNS cancer; single dose 10^−5 M; read-out: growth inhibition percentage
Description: as §1, §2

NCI-H322M = assay: NCI single dose screen, NCI-H322M; type: cell-based; conditions: Homo sapiens, non-small cell lung cancer, single dose 10^−5 M, read-out: growth inhibition percentage
Description: as §1, §2

[5] = tested on: LPS-induced NO production in RAW 264.7 cells; assay: NO production in LPS-activated RAW 264.7 macrophage cells (DAF-FM diacetate); type: cell-based; conditions: LPS-activated RAW 264.7 cells, mean ± SEM, three replicates; for IC50: Mus musculus, RAW264.7
Description: as §3

HCT-15 = assay: NCI single dose screen, HCT-15; type: cell-based; conditions: Homo sapiens; HCT-15, colon cancer; single dose 10^−5 M; read-out: growth inhibition percentage
Description: as §1, §2

T1 sequence (P00533 25-1210 T790M/L858R): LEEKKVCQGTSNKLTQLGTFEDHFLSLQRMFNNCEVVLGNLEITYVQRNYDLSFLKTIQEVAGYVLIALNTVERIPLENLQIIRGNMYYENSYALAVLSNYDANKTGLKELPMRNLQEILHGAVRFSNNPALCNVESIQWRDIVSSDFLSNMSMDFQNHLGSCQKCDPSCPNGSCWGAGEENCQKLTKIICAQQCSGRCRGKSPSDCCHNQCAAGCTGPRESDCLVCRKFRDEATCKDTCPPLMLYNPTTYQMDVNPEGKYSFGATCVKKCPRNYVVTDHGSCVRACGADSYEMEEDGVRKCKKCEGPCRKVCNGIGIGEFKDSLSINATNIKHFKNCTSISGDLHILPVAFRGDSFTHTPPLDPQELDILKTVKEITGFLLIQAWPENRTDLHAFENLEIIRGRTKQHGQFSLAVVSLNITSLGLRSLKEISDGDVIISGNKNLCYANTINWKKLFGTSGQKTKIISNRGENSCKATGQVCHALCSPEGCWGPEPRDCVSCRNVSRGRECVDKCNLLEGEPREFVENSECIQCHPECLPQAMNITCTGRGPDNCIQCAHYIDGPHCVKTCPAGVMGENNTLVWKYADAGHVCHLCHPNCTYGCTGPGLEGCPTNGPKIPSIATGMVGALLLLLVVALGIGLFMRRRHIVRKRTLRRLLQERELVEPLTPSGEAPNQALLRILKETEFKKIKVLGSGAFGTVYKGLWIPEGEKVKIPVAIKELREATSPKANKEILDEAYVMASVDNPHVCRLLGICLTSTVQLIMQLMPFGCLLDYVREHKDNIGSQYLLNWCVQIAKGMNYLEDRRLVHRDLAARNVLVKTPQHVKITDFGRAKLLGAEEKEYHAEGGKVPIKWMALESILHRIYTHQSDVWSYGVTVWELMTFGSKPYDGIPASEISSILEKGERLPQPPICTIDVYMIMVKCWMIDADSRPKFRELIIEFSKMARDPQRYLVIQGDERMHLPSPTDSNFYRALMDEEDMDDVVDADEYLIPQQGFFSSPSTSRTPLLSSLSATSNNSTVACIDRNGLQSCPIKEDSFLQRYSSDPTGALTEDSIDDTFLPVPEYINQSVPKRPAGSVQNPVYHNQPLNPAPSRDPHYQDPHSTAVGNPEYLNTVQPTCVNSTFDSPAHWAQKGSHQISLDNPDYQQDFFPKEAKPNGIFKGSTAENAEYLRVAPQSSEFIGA

Compound | TNF-α concentration [1] | inhibition at 10 µM (SK-MEL-28) [%] | inhibition at 10 µM (OVCAR-3) [%] | inhibition at 10 µM (UO-31) [%] | inhibition at 10 µM (SNB-75) [%] | inhibition at 10 µM (MDA-MB-435) [%] | melting point [°C] | viability [2] [%] | inhibition at 10 µM (OVCAR-5) [%] | inhibition at 10 µM (MOLT-4) [%] | inhibition at 10 µM (U251) [%] | inhibition at 10 µM (SK-OV-3) [%] | IC50 [3] [µM] | Selectivity (SI) [3] | inhibition at 10 µM (SF-295) [%] | IC50 [4] [µM] | inhibition at 10 µM (RXF 393) [%] | inhibition at 10 µM (NCI-H23) [%] | inhibition at 10 µM (IGROV1) [%] | inhibition at 10 µM (EKVX) [%] | further results
CN1CN(NC(=O)Nc2ccccc2)C(=O)c2ccccc21 [Compound 6a, 1-(1-Methyl-4-oxo-1,4-dihydroquinazolin-3(2H)-yl)-3-phenylurea] | 1157.00 ± 78.71 pg/mL | < 10 | < 10 | < 10 | < 10 | < 10 | 240 to 241 | > 90 | < 10 | < 10 | < 10 | < 10 | 0.46 ± 1.11 | >217 | < 10 | 35.7 ± 1.08 | < 10 | < 10 | < 10 | < 10 | inhibition at 10 µM (SF-268): < 10%; inhibition at 10 µM (NCI-H322M): < 10%; IC50 [5]: 0.97 ± 1.67 µM; inhibition at 10 µM (HCT-15): < 10%
CN1c2ccccc2C(=O)N(NC(=O)Nc2ccccc2)C1c1ccccc1 (centres unmarked) [Compound 6c, 1-(1-Methyl-4-oxo-2-phenyl-1,4-dihydroquinazolin-3(2H)-yl)-3-phenylurea] | 955.00 ± 4.66 pg/mL | < 10 | 11.7 | 19.5 | < 10 | < 10 | 180 to 181 | > 90 | < 10 | < 10 | < 10 | < 10 | 7.93 ± 1.11 | >12.6 | < 10 | 48.1 ± 1.07 | < 10 | < 10 | < 10 | < 10 | inhibition at 10 µM (SF-268): < 10%; inhibition at 10 µM (NCI-H322M): < 10%; IC50 [5]: 1.54 ± 1.02 µM; inhibition at 10 µM (HCT-15): < 10%
CN1c2ccccc2C(=O)N(NC(=O)Nc2ccccc2)C1c1ccc(F)cc1 (centres unmarked) [Compound 6d, 1-(2-(4-Fluorophenyl)-1-methyl-4-oxo-1,4-dihydroquinazolin-3(2H)-yl)-3-phenylurea] | 1222.00 ± 12.70 pg/mL | < 10 | 12.5 | 36.2 | 13.8 | < 10 | 230 to 232 | > 90 | < 10 | 11.1 | < 10 | < 10 | 5.57 ± 1.78 | >17.9 | < 10 | 37 ± 1 | < 10 | < 10 | < 10 | < 10 | inhibition at 10 µM (SF-268): < 10%; inhibition at 10 µM (NCI-H322M): < 10%; IC50 [5]: 4.12 ± 0.65 µM; inhibition at 10 µM (HCT-15): < 10%
CN1c2ccccc2C(=O)N(NC(=O)Nc2ccccc2)C1c1ccc([N+](=O)[O-])cc1 (centres unmarked) [Compound 6e, 1-(1-Methyl-2-(4-nitrophenyl)-4-oxo-1,4-dihydroquinazolin-3(2H)-yl)-3-phenylurea] | 1929.00 ± 53.88 pg/mL | < 10 | < 10 | 14.4 | < 10 | < 10 | 241 to 243 | > 90 | < 10 | < 10 | < 10 | < 10 | 5.48 ± 1.33 | 8.9 | < 10 | > 100 | < 10 | < 10 | < 10 | < 10 | ROS IC50 [4]: neither compound 6e nor compound 6g inhibited ROS production significantly; inhibition at 10 µM (SF-268): < 10%; inhibition at 10 µM (NCI-H322M): < 10%; NO IC50 [5]: did not show any significant NO inhibitory activity; IC50 [5]: > 100 µM; inhibition at 10 µM (HCT-15): < 10%
COc1ccc(NC(=O)NN2C(=O)c3ccccc3N(C)C2c2ccc(OC)cc2)cc1 (centres unmarked) [Compound 6j, 1-(4-Methoxyphenyl)-3-(2-(4-methoxyphenyl)-1-methyl-4-oxo-1,4-dihydroquinazolin-3(2H)-yl)urea] | 757.30 pg/mL and 757.30 ± 2.50 pg/mL | < 10 | 10.2 | 24.6 | < 10 | < 10 | 205 to 207 | > 90 | < 10 | < 10 | < 10 | < 10 | 4.03 ± 1.43 | >24.8 | < 10 | 24.1 ± 1.08 | < 10 | < 10 | < 10 | < 10 | inhibition at 10 µM (SF-268): < 10%; inhibition at 10 µM (NCI-H322M): < 10%; IC50 [5]: 13.5 ± 0.29 µM; inhibition at 10 µM (HCT-15): < 10%
CC1N(NC(=O)Nc2ccc(F)cc2)C(=O)c2ccccc2N1C (centres unmarked) [Compound 6l, 1–(1,2-Dimethyl-4-oxo-1,4-dihydroquinazolin-3(2H)-yl)-3-(4-fluorophenyl)urea] | 1250.00 ± 5.82 pg/mL | < 10 | 16.9 | < 10 | < 10 | < 10 | 187 to 190 | > 90 | < 10 | < 10 | < 10 | < 10 | 17 ± 1.4 | >5.8 | < 10 | 37.9 ± 1 | < 10 | < 10 | < 10 | < 10 | inhibition at 10 µM (SF-268): < 10%; inhibition at 10 µM (NCI-H322M): < 10%; IC50 [5]: 5.24 ± 0.5 µM; inhibition at 10 µM (HCT-15): < 10%
